Test results: patent publication US20240409536A1, “COMPOUNDS AND METHODS FOR MODULATING SPLICING” (REMIX THERAPEUTICS INC., priority 2021, published 2024)

Columns and labels:
HTT mRNA [1] = test: Splicing RT-qPCR assay, HTT canonical (CJ) and alternative (AJ) junction mRNA; type: cell-based; conditions: Homo sapiens, A673 or K562 cells, 24 hours; for IC50: decrease in canonical junction mRNA; for AC50: increase in alternative junction mRNA
In short: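 RT-qPCR read-out: CJ and AJ junction isoforms quantified from cell lysates, normalized to housekeeping GAPDH/GUSB (K562) or PPIA (A673). Cells had 24 h compound exposure, 11-point 3-fold series from 10 uM final, ≤0.25% DMSO.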

K562 cells = test: Cell Titer Glo 2.0 cell viability assay in K562 cells; conditions: 72 hours
HTT mRNA [2] = test: Gene panel canonical junction qPCR assay, HTT CJ mRNA decrease; type: cell-based, human; conditions: Homo sapiens, canonical junction qPCR, read-out: HTT IC50 (decrease in CJ mRNA levels)
In short: (§1)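 A673 or K562 cells treated with compound; canonical exon-exon junction mRNA quantified by cDNA synthesis and RT-qPCR with junction-spanning primer/probe, normalized to GAPDH, GUSB or PPIA and DMSO (2^(−ΔΔCt)). Percent response from set ΔCt assay windows fitted to 4-parameter logistic; IC50 for CJ decrease.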

Target C mRNA = test: Gene panel canonical junction qPCR assay, Target C CJ mRNA decrease; type: cell-based; conditions: Homo sapiens, canonical junction qPCR, read-out: Target C IC50 (decrease in CJ mRNA levels)
In short: as §1

SMILES | IC50 (HTT mRNA [1]) [µM] | IC50 (HTT mRNA [2]) [µM] | IC50 (Target C mRNA) [µM] | AC50 (HTT mRNA [1]) [µM] | Viability (K562 cells)
C[C@@H]1CN(c2ccc(C(=O)Nc3cc(F)c4nc(O)cn4c3)c3nccnc23)C[C@H](C)N1 [Compound 360] | > 10 | > 10 | > 10 | > 10 | D (D represents greater than 10 μM in K562 cells)
Cc1cn2cc(NC(=O)c3ccc(N4CC[C@@H](N(C)C)C4)c4nccnc34)cc(F)c2n1 [Compound 242, 8-[(3R)-3-(dimethylamino)pyrrolidin-1-yl]-N-{8-fluoro-2-methylimidazo[1,2-a]pyridin-6-yl}quinoxaline-5-carboxamide] | > 10 | > 10 | > 10 | > 10 | B (B represents 100-1000 nM)
COc1nc2c(F)cc(NC(=O)c3ccc(N4C[C@@H](C)N[C@@H](C)C4)c4nccnc34)cc2o1 [Compound 342] | > 10 | > 10 | > 10 | > 10 | C (C represents 1000-9999 nM)
Cc1cn2cc(NC(=O)c3ccc(N4CC[C@@H](N)C4)c4nccnc34)cc(F)c2n1 [Compound 315] | > 10 | > 10 | > 10 | 1 to 10 | B (B represents 100-1000 nM)
CNc1nc(NC(=O)c2ccc(N3C[C@@H](C)N[C@@H](C)C3)c3nccnc23)cn2cc(C)nc12 [Compound 308] | > 10 | > 10 | > 10 | > 10 | C (C represents 1000-9999 nM)
COc1nc2ccc(NC(=O)c3ccc(N4C[C@@H](C)N[C@@H](C)C4)c4nccnc34)cc2o1 [Compound 292] | > 10 | > 10 | > 10 | > 10 | D (D represents greater than 10 μM in K562 cells)
COc1nc(NC(=O)c2ccc(N3C[C@@H](C)N[C@@H](C)C3)c3nccnc23)nc2cn(C)nc12 [Compound 287] | > 10 | > 10 | > 10 | > 10 | D (D represents greater than 10 μM in K562 cells)
C[C@@H]1CN(c2ccc(C(=O)Nc3ccc4nc(N(C)C)oc4c3)c3nccnc23)C[C@H](C)N1 [Compound 290] | > 10 | > 10 | > 10 | > 10 | D (D represents greater than 10 μM in K562 cells)
Cc1cn2cc(NC(=O)c3ccc(N4CCNCC4)c4ccnnc34)c(C)cc2n1 [Compound 119] | 1 to 10 | 1 to 10 | 1 to 10 | 1 to 10 | B (B represents 100-1000 nM)
Cc1cn2cc(NC(=O)c3ccc(N4C[C@@H](C)N[C@@H](C5CC5)C4)c4nccnc34)cc(F)c2n1 [Compound 266, 8-((3S,5R)-3-cyclopropyl-5-methylpiperazin-1-yl)-N-(8-fluoro-2-methylimidazo[1,2-a]pyridin-6-yl)quinoxaline-5-carboxamide] | 1 to 10 | 1 to 10 | > 10 | 0.1 to 1 | B (B represents 100-1000 nM)
Cc1cn2cc(NC(=O)c3ccc(N4CCC5(CCN5)C4)c4nccnc34)cc(F)c2n1 (stereo not drawn) [Compound 339] | 1 to 10 | 1 to 10 | 1 to 10 | 1 to 10 | B (B represents 100-1000 nM)
Cc1cn2cc(NC(=O)c3ccc([C@@]45CCNCC4C5)c4nccnc34)cc(F)c2n1 (stereo in doubt) [Compound 248, 8-{3-azabicyclo[4.1.0]heptan-6-yl}-N-{8-fluoro-2-methylimidazo[1,2-a]pyridin-6-yl}quinoxaline-5-carboxamide 2,2,2-trifluoroacetate] | 1 to 10 | 1 to 10 | 1 to 10 | > 10 | B (B represents 100-1000 nM)
COc1cn2cc(NC(=O)c3ccc(N4C[C@@H](C)N[C@@H](C)C4)c4nccnc34)cc(F)c2n1 [Compound 357] | > 10 | > 10 | > 10 | > 10 | C (C represents 1000-9999 nM)
Cc1cn2cc(NC(=O)c3ccc(N4C[C@@H](C)N[C@@H](C)C4)c4ncc(Cl)nc34)cc(F)c2n1 [Compound 281] | > 10 | > 10 | > 10 | > 10 | C (C represents 1000-9999 nM)
Cc1cn2cc(NC(=O)c3ccc(N4CCNCC4)c4ccnnc34)ncc2n1 [Compound 120] | > 10 | > 10 | > 10 | > 10 | C (C represents 1000-9999 nM)
COc1nc(NC(=O)c2ccc(N3C[C@@H](C)N[C@@H](C)C3)c3nccnc23)cc2cn(C)nc12 [Compound 352] | 1 to 10 | 1 to 10 | 1 to 10 | 1 to 10 | B (B represents 100-1000 nM)
Cc1cn2cc(NC(=O)c3ccc(N4C[C@@H](C)N[C@@H](C)C4)c4ncccc34)cc(F)c2n1 [Compound 358] | > 10 | > 10 | > 10 | > 10 | D (D represents greater than 10 μM in K562 cells)

Second part, led by results:

IC50 (HTT mRNA [1]) [µM] | IC50 (HTT mRNA [2]) [µM] | IC50 (Target C mRNA) [µM] | SMILES | AC50 (HTT mRNA [1]) [µM] | Viability (K562 cells)
1 to 10 | 1 to 10 | 1 to 10 | Cc1cn2cc(NC(=O)c3ccc(N4CCNCC4)c4nccnc34)cc(F)c2n1 [Compound 111] | 1 to 10 | B (B represents 100-1000 nM)
1 to 10 | 1 to 10 | > 10 | Cc1cn2cc(NC(=O)c3ccc(N4C[C@@H](C)N[C@@H](C)C4)c4nccnc34)cc(Cl)c2n1 [Compound 304] | > 10 | B (B represents 100-1000 nM)
1 to 10 | 1 to 10 | 1 to 10 | Cc1cn2cc(NC(=O)c3ccc(N4CCN(CCO)C5(CC5)C4)c4nccnc34)cc(F)c2n1 [Compound 369] | 1 to 10 | C (C represents 1000-9999 nM)
1 to 10 | 1 to 10 | 1 to 10 | CN[C@@H]1CCN(c2ccc(C(=O)Nc3cc(F)c4nc(C)cn4c3)c3nnccc23)C1 [Compound 238, (R)—N-(8-fluoro-2-methylimidazo[1,2-a]pyridin-6-yl)-5-(3-(methylamino)pyrrolidin-1-yl)cinnoline-8-carboxamide] | 1 to 10 | B (B represents 100-1000 nM)
0.1 to 1 | 0.1 to 1 | 1 to 10 | CCN1CCN(c2ccc(C(=O)Nc3cc(F)c4nc(C)cn4c3)c3nccnc23)CC12CC2 [Compound 365] | 1 to 10 | B (B represents 100-1000 nM)
1 to 10 | 1 to 10 | 1 to 10 | Cc1cn2cc(NC(=O)c3ccc(N4CC(C)NC(C)C4)c4nc(C)c(C)nc34)cc(F)c2n1 (stereo not drawn) [Compound 257] | 1 to 10 | B (B represents 100-1000 nM)
1 to 10 | 1 to 10 | 1 to 10 | Cc1cn2cc(NC(=O)c3ccc(N4CCNC5(CCC5)C4)c4nccnc34)cc(F)c2n1 [Compound 363] | 1 to 10 | A (A represents <100 nM)
1 to 10 | 1 to 10 | > 10 | Cc1cn2cc(NC(=O)c3ccc(N4CC[C@@H](N)C4)c4ccnnc34)cc(F)c2n1 [Compound 270] | 1 to 10 | B (B represents 100-1000 nM)
0.1 to 1 | 0.1 to 1 | 0.1 to 1 | COc1cc2c(N3C[C@@H](C)N[C@@H](C)C3)ccc(C(=O)Nc3cc(F)c4nc(C)cn4c3)c2nn1 [Compound 273, 5-[(3R,5S)-3,5-dimethylpiperazin-1-yl]-N-{8-fluoro-2-methylimidazo[1,2-a]pyridin-6-yl}-3-methoxycinnoline-8-carboxamide] | 0.1 to 1 | B (B represents 100-1000 nM)
0.1 to 1 | 0.1 to 1 | 1 to 10 | COc1nc(NC(=O)c2ccc(N3C[C@@H](C)N[C@@H](C)C3)c3nccnc23)cn2cc(C)nc12 [Compound 277] | 1 to 10 | B (B represents 100-1000 nM)
0.1 to 1 | 0.1 to 1 | 0.1 to 1 | Cc1cn2nc(NC(=O)c3ccc(N4C[C@@H](C)N[C@@H](C)C4)c4nccnc34)cc2c(C)n1 [Compound 354] | 0.1 to 1 | B (B represents 100-1000 nM)
0.1 to 1 | 0.1 to 1 | 1 to 10 | CCOc1cnc2c(N3C[C@@H](C)N[C@@H](C)C3)ccc(C(=O)Nc3cc(F)c4nc(C)cn4c3)c2n1 [Compound 296] | 0.1 to 1 | B (B represents 100-1000 nM)
0.1 to 1 | 0.1 to 1 | 0.1 to 1 | Cc1cn2cc(NC(=O)c3ccc(N4CCC(NC5CC5)CC4)c4nccnc34)cc(F)c2n1 [Compound 258, 8-(4-(cyclopropylamino)piperidin-1-yl)-N-(8-fluoro-2-methylimidazo[1,2-a]pyridin-6-yl)quinoxaline-5-carboxamide] | 0.1 to 1 | B (B represents 100-1000 nM)
